Target: GABAa receptor
Experiment: GABAa receptor binding, displacement of 3H-RO15-1788 [3H-Flumazenil]
Settings: rat cortical tissue, 0.5 nM 3H-RO15-1788, 30 min at 4° C., pH 7.4
Experimental: The pharmaceutical utility of compounds of this invention are indicated by the following assay for GABAa receptor activity.
Assays are carded out as described in Thomas and Tallman (J. Bio. Chem. 156: 9838-9842, J. Neurosci. 3: 433-440, 1983). Rat conical tissue is dissected and homogenized in 25 volumes (w/v) of 0.05M Tris HCl buffer (pH 7.4 at 4° C.). The tissue homogenate is centrifuged in the cold (4°) at 20,000×g for 20'. The supernatant is decanted and the pellet is rehomogenized in the same volume of buffer and again centrifuged at 20,000×g. The supernatant is decanted and the pellet is frozen at -20° C. overnight. The pellet is then thawed and rehomogenized in 25 volume (original wt/vol) of buffer and the procedure is carded out twice. The pellet is finally resuspended in 50 volumes (w/vol of 0.05M Tris HCl buffer (pH 7.4 at […]).
Incubations contain […] of tissue homogenate, […] of radioligand 0.5 nM (3H-RO15-1788 [^3 H-Flumazenil] specific activity 80 Ci/mmol), drug or blocker and buffer to a total volume of […]. Incubations are carried for 30 min at 4° C. then are rapidly filtered through GFB filters to separate free and bound ligand. Filters are washed twice with fresh 0.05M Tris HCl buffer (pH 7.4 at 4° C.) and counted in a liquid scintillation counter. 1.0 mM diazepam is added to some tubes to determine nonspecific binding. Data are collected in triplicate determinations, averaged and % inhibition of total specific binding is calculated. Total Specific Binding=Total-Nonspecific. In some cases, the amounts of unlabeled drugs is varied and total displacement curves of binding are carded out. Data are converted to a form for the calculation of IC50 and Hill Coefficient (nH).

Compound | Ki [nM]
O=c1[nH]c2c(n1-c1nc3ccc(F)c(F)c3o1)CCCCC2 [Compound 1] | 3
O=c1[nH]c2c(n1-c1nc3ccc(F)cc3o1)CCCCC2 [Compound 2] | 4.6
O=c1[nH]c2cc(F)ccc2n1-c1nc2cccc(F)c2o1 [Compound 3, 3-(2-(7-fluorobenzoxazyl))-6-fluorobenzimidazol-2-(1H)-one] | 14
O=c1[nH]c2cc(F)ccc2n1-c1nc2ccc(F)cc2o1 [Compound 4, 3-(2-(6-fluorobenzoxazyl))-6-fluorobenzimidazol-2-(1H)-one] | 25
O=c1[nH]c2c(n1-c1nc3ccc(F)c(F)c3o1)CCCC2 [Compound 5] | 21
COc1ccc2oc(-n3c4c([nH]c3=O)CCCC4)nc2c1 [Compound 6] | 81

— patent publication US5637724A (priority 1995, dated 1997)
